For series [1], the system named is subjects with Type-2 Diabetes Mellitus (T2DM). Put plainly: Oral glucose tolerance test (OGTT): serum C-peptide pharmacodynamic response. The format is in vivo, human. Conditions: baseline corrected, after 75-gram OGTT, Days 5, 10, 15. As to the method:
(§1) On Days 5, 10 and 15, a 75-gram glucose solution (oral glucose tolerance test, OGTT) was administered 30 min post-drug administration. No breakfast was provided.
(§2) Pharmacodynamic (PD) responses, i.e., serum levels of glucose, insulin and C-peptide and plasma levels of glucagon, were evaluated on Days 5, 10 and 15: pre-dose (within 60 min prior to glucose intake) and at 0.5, 1, 1.5, 2, 2.5, 3 and 4 h post-glucose intake. Urine was collected for urinary glucose excretion on Days 5, 10 and 15: pre-dose (for bladder emptying only, no pre-dose glucose measurement), and over a series of intervals (0-2 h, 2-4 h, 4-6 h, 6-8 h, 8-12 h and 12-24 h post-dose).

For series [2] the following is noted: in vivo.
Method: This phase I study accessed the pharmacokinetic interaction between dorzagliatin and empagliflozin in T2DM subjects.
Sixteen eligible subjects were enrolled and 15 of them completed the study.
All subjects received: (i) empagliflozin (25 mg, QD) on Days 1-5; and empagliflozin was taken 60 min prior to meals (except on Day 5, when it was administered 30 min before glucose intake); (ii) empagliflozin (25 mg, QD) and dorzagliatin (75 mg, BID) on Days 6-10 (only the morning dose on Day 10); and empagliflozin and dorzagliatin were taken 60 min prior to meals (except on Day 10, when they were administered 30 min before glucose intake); or (iii) dorzagliatin 75 mg BID on Days 11-15 (only the morning dose on Day 15); and dorzagliatin was taken 60 min prior to meals (except on Day 15, when it was administered 30 min before glucose intake).
Blood samples for the determination of dorzagliatin and empagliflozin concentrations and corresponding pharmacokinetic (PK) analysis were collected at the following time points on Days 5, 10 and 15: pre-dose (within 30 min prior to drug dosing) and at 0.25, 0.5, 1, 1.5, 2, 3, 4, 6, 8, 10, 12, 18 and 24 h post-dose. […]
The plasma concentration-time data for dorzagliatin and empagliflozin were analyzed using non-compartmental methods to calculate PK parameters.
Series [3] concerns subjects with Type-2 Diabetes Mellitus (T2DM). The series can be described thus: Oral glucose tolerance test (OGTT): serum glucose pharmacodynamic response. Type of series: in vivo, human. The note with it: baseline corrected, after 75-gram OGTT 30 min post-dose, Days 5, 10, 15. As to the method:
as §1, §2

Data on two compounds can be found in patent publication US11813274B2, “Treating untreated or treatment-resistant diabetes with glucokinase activator and sodium-glucose cotransporter-2 inhibitor” (HUA Medicine (Shanghai) Ltd., priority 2020, dated 2023).

Consider `OC[C@H]1O[C@@H](c2ccc(Cl)c(Cc3ccc(OC4CCOC4)cc3)c2)[C@H](O)[C@@H](O)[C@@H]1O` (stereo in doubt) [Empagliflozin, (2S,3R,4R,5S,6R)-2-[4-chloro-3({4-[(3S)-oxolan-3-yloxy]phenyl}methyl)phenyl]-6-(hydroxymethyl)oxane-3,4,5-triol], for which, in series [1], the C-peptide response AUEC0-4 h, mean amounted to 11 ng·h/mL; the C-peptide response CEav, mean worked out at 2.7 ng/mL; the C-peptide response CEmax, mean was 4.7 ng/mL. Also, the “effect of empagliflozin on dorzagliatin PK parameters (drug-drug interaction)” value in series [2] is “did not have a significant effect on dorzagliatin PK parameters”. Also, in series [3], the “Glucose response AUEC0-4 h, mean” value stood at 452 mg·h/dL; the “Glucose response CEav, mean” value is 113 mg/dL; the “Glucose response CEmax, mean” value is recorded as 199 mg/dL.

As to `CC(C)C[C@@H](C(=O)Nc1ccn(C[C@@H](O)CO)n1)N1CC(Oc2ccccc2Cl)=CC1=O` [Dorzagliatin, (S)-2-(4-(2-chlorophenoxy)-2-oxo-2,5-dihydro-1H-pyrrol-1-yl)-N-(1-((R)-2,3-dihydroxypropyl)-1H-pyrazol-3-yl)-4-methylpentanamide], in series [1], the C-peptide response AUEC0-4 h, mean came to 13 ng·h/mL; the C-peptide response CEav, mean turned out to be 3.2 ng/mL; the C-peptide response CEmax, mean was 5.5 ng/mL. In addition, the “effect of dorzagliatin on empagliflozin PK parameters (drug-drug interaction)” value in series [2] was “did not have a significant effect on empagliflozin PK parameters”. In addition, in series [3], the “Glucose response AUEC0-4 h, mean” value was determined as 364 mg·h/dL; the “Glucose response CEav, mean” value worked out at 91 mg/dL; the “Glucose response CEmax, mean” value is given as 163 mg/dL.
